Experiments:
[1] = system: anti-Thy 1 glomerulonephritis; assay: Proteinuria in anti-Thy 1 glomerulonephritis; assay type: in vivo, Sprague Dawley rats; conditions: enalapril monotherapy
Protocol: (§1) These experiments were performed on male Sprague Dawley rats (200-250 g) obtained from the Sasco colony of Charles River Laboratories (Wilmington, Mass., USA). Animal housing and care were in accordance with the NIH Guide for the Care and Use of Laboratory Animals, NIH Publication No. 85-23, 1985. Animals were fed a normal protein diet (22% protein, Teklad No. 86 550, Teklad Premier Laboratory Diets, Madison, Wis., USA). Glomerulonephritis was induced by tail vein injection of 2.25 mg/Kg of the monoclonal anti-Thy 1.1 antibody OX-7 (NCCC, Biovest International Inc, Minneapolis, Minn., USA). OX-7 binds to a Thy 1-like epitope on the surface of mesangial cells causing complement-dependent cell lysis followed by fibrotic tissue repair (Bagchus et al., Lab Invest. 55:680-687 (1986)). Control animals were injected with similar volumes of phosphate-buffered saline (PBS).
Groups of 8 rats were assigned and treated as outlined in Table 2. Doses of enalapril above […] in drinking water are maximally effective in this model (Peters et al., Kidney Int. 54:1570-1580 (1998)). A dose of […] enalapril was used here. […]
The disease-induced increase in a variable was defined as the mean value for the disease control group minus the mean value of the normal control group. The percent reduction in disease severity in a treated group was calculated as: […]

[2] = system: anti-Thy 1 glomerulonephritis; assay: Glomerular p-Smad2 (Western blot); assay type: in vivo, Sprague Dawley rats; conditions: enalapril alone
Protocol: as §1, with “(PBS). Groups of 8 rats were assigned and treated as outlined in Table 2. […] Bound antibodies were detected by developing the blot in ECL™ Western blotting detection reagents (Amersham Pharmacia Biotech) for 1 min. Quantitation of the bands on autoradiograms was performed using a BIO-RAD GS-700 imaging densitometer. Changes in p-Smad2 levels were determined by correcting for the densitometric intensity of β-actin for each sample. […] The percent reduction in disease severity in a treated group was calculated as: […]” for “(PBS).”

## CCOC(=O)[C@H](CCc1ccccc1)N[C@@H](C)C(=O)N1CCC[C@H]1C(=O)O [enalapril]
[1]
  reduction of disease-induced increases in urinary protein: 78%
[2]
  reduction of Smad2 activation (p-Smad2): 36%

From patent publication US7763580B2, “Methods for treating conditions associated with the accumulation of excess extracellular matrix” (University of Utah Research Foundation, priority 1999, dated 2010)
